The test system of assay [1] is loperamide-induced delayed gastric emptying. Briefly: Rat gastric emptying assay (reversal of loperamide-induced delayed gastric emptying). The assay is classed as in vivo. The note with it: administered orally, loperamide 1 mg/kg s.c., gastric emptying model. As to the method:
Assay 3: Rat Model of In Vivo Efficacy In this assay the efficacy of test compounds was evaluated in a model of gastrointestinal transit, which evaluates peripheral activity. This study was approved by the Institutional Animal Care and Use Committee at […]. and conformed to the Guide for the Care and Use of Laboratory Animals published by the National Academy of Sciences (©1996). a. Rat Gastric Emptying Assay Test compounds were evaluated in the rat gastric emptying assay to determine their ability to reverse loperamide-induced delayed gastric emptying. Rats were fasted up overnight prior to administration of test compounds or vehicle by intravenous, subcutaneous, intramuscular or oral routes of administration at doses ranging from 0.001 to about 30 milligrams/kilogram (mg/kg). The administration of test compound was followed by subcutaneous administration of loperamide at a dose of 1 mg/kg or vehicle. Five minutes post loperamide or vehicle administration, a non-nutritive, non-absorbable charcoal meal was administered via oral gavage and animals were allowed free access to water for the sixty minute duration of the experiment. Animals were then euthanized via carbon dioxide asphyxiation followed by thoracotomy and the stomach was carefully excised. The stomach was ligated at the lower esophageal sphincter and the pyloric sphincter to prevent additional emptying during tissue removal. Gastric weight was then determined after removal of the ligatures. b. Data Analysis and Results Data was analyzed using the GraphPad Prism Software package (GraphPad Software, Inc., San Diego, Calif.). Percent reversal curves were constructed by non-linear regression analysis using the sigmoidal dose response (variable slope) model and best-fit ID50 values were calculated. Curve minima and maxima were fixed to loperamide control values (indicating 0% reversal) and vehicle controls (indicating 100% reversal), respectively. Results are expressed as ID50, the dose required for 50% reversal of the effects of loperamide, in milligrams per kilogram.

Assay [2] deals with T1, human mu opioid receptor (Homo sapiens, UniProt P35372). Briefly: Radioligand binding assay, human mu opioid receptor.
In assay [3] the target is T1, human mu opioid receptor. Briefly: Human mu [35S]GTPγS nucleotide exchange assay (agonist mediated activation). The assay is classed as biochemical. The note with it: read-out: intrinsic activity (IA). (In general: Binding of GTPγS marks nucleotide exchange on a G protein.)
Where [4] appears, read: displacement of [3H]-Diprenorphine 0.5 nM, CHO-K1 cell membranes, read-out: pKi at the human mu opioid receptor (converted).
The mark [5] stands for this setting: bound [35S]GTPγS relative to DAMGO (IA=100), CHO-K1 membranes expressing human mu opioid receptor.

This note sets out measurements from patent publication US8153686B2 (Theravance, Inc., priority 2008, dated 2012).

Like-named read-outs stand apart in the source and are kept apart here.

T1 sequence (P35372 whole entry): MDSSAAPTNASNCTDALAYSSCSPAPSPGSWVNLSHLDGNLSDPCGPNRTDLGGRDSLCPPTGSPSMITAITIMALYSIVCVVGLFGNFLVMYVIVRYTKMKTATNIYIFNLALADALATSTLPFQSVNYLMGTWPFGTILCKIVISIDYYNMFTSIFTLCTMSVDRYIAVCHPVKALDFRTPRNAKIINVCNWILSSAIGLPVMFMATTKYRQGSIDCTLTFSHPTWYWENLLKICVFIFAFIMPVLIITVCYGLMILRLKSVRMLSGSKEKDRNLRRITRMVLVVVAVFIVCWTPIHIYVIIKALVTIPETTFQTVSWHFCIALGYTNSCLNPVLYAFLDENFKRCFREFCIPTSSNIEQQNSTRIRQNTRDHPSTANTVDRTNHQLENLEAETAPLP

As to `CO[C@@H]1Cc2ccc(C(N)=O)cc2C(C)(C)[C@H]1NCCCNC(=O)C1CCCCC1` (relative stereo) [Example 1, trans-7-[3-(Cyclohexanecarbonyl-amino)-propylamino]-6-methoxy-8,8-dimethyl-5,6,7,8-tetrahydro-naphthalene-2-carboxylic acid amide], in assay [1], the “ID50, dose required for 50% reversal of the effects of loperamide” value is listed as 0.5 mg/kg. For the same compound, the Ki in assay [2] (setting [4]) is 0.158 nM. The Emax in assay [3] (setting [5]) was determined as 10%.
In the same order, the values of `CO[C@@H]1Cc2ccc(C(N)=O)cc2C(C)(C)[C@H]1NCCCNC(=O)CC(C)(C)C` (relative stereo) [Example 11, trans-7-[3-(3,3-Dimethyl-butyrylamino)-propylamino]-6-methoxy-8,8-dimethyl-5,6,7,8-tetrahydro-naphthalene-2-carboxylic acid amide] are 0.4 mg/kg, 0.2 nM and 1%.
In the same order, the values of `CO[C@@H]1Cc2ccc(C(N)=O)cc2C(C)(C)[C@H]1NCCCNC(=O)c1ccccc1` (relative stereo) [Example 16, trans-7-(3-Benzoylamino-propylamino)-6-methoxy-8,8-dimethyl-5,6,7,8-tetrahydro-naphthalene-2-carboxylic acid amide] are 0.63 mg/kg, 0.126 nM and -2%.
`COC1Cc2ccc(C(N)=O)cc2C(C)(C)C1NC[C@H](N)Cc1ccccc1` (single isomer, unassigned) [Example 8] gave a Ki in assay [2] of 1.58 nM. Further, the Emax in assay [3] is -7%.
In the case of `CO[C@H]1Cc2ccc(C(N)=O)cc2C(C)(C)[C@@H]1NCCCNC(=O)CC(C)(C)C` [Example 12, (6S,7S)-7-[3-(3,3-Dimethyl-butyrylamino)-propylamino]-6-methoxy-8,8-dimethyl-5,6,7,8-tetrahydro-naphthalene-2-carboxylic acid amide], in assay [1], the “ID50, dose required for 50% reversal of the effects of loperamide” value stood at 0.11 mg/kg. The Ki in assay [2] (setting [4]) is 0.0631 nM.
